We go through 12 compounds from EP0193189A1, “Novel compound, its production and insecticidal and acaricidal composition containing it as an active ingredient” (SUMITOMO CHEMICAL COMPANY, LIMITED, priority 1985, dated 1986).

Values after ≈ are worked out from the molar mass of the structure shown. Where two headings read alike, the source gives them in different places.

Format in all cases: in vivo
In test [1] the test system is common mosquito (Culex pipiens pallens). Nature of the test: Test Example 1: common mosquito larvae in diluted emulsifiable concentrate, mortality and emergence inhibition. Particulars: Culex pipiens; for mortality at 3.5 ppm: 24 h; for pest or weed control at 3.5 ppm: counted when all pupae of no treatment group had emerged, read-out: Inhibitory ratio of emergence. The procedure:
The emulsifiable concentrates of the following present compounds obtained according to Formulation example 2 were each diluted with water so as to obtain respective aqueous solutions containing 3.5 ppm of said compounds, respectively. One hundred ml of thus diluted aqueous solutions were poured into respective polyethylene cups of 180 ml volume, and 20 of the last instar larvae of common mosquito (Culex pipiens pallens) were liberated thereto. After one day, the dead or alive of the larvae were examined.
Thereafter, the feed was added to respective cups and the number of emerged pupae of the respective cups was counted when all the pupae of no treatment group had emerged to calculate the inhibitory ratios of the emergence.
The mortality and the inhibitory ratio of the emergence are shown according to the following three criteria: • mortality: A; 90% or more, • B; less than 90% to 10%, • C; less than 10%. • inhibitory: A; 90% or more, ratio of • emergence B; less than 90% to 80% • C; less than 80%.

In test [2] the test system is rice stem borer (Chilo suppressalis). As to the kind of experiment: Test Example 5: rice stem borer larvae on treated artificial feed. The conditions noted are these: 1 ml solution in artificial feed, larvae 10 days old, read-out: LC50 value (ppm). The text has this:
The emulsifiable concentrates of the following present compounds and control compounds obtained according to Formulation example 2 were each diluted with water to a prescribed concentration, and one ml each of thus prepared solutions was impregnated into the artificial feeds for rice stem borer (Chilo suppressalis) which had been previously prepared in polyethylene cups of 5.5 cm in diameter, respectively. Ten of the larvae of the 10 days old were liberated thereon. The dead and alive larvae were examined to obtain LC50 value (50% lethal concentration) (two replications).

The test system of test [3] is tobacco cutworms (Spodoptera litura). Nature of the test: Test Example 2: tobacco cutworm larvae on treated artificial feed. The conditions noted are these: Spodoptera litura, 144 h. The text has this: The emulsifiable concentrates of the following present compounds obtained according to Formulation example 2 were each diluted with water to obtain respective 667 times dilution aqueous solutions (corresponding to 150 ppm) containing said compounds, respectively. Two ml of thus diluted solutions were impregnated into the artificial feeds (13 g) for tobacco cutworms (Spodoptera litura) and thus prepared feeds were placed in polyethylene cups of 11 cm in diameter, respectively. Ten of the 4th instar larvae were liberated thereon.
Six days after, the dead and alive of the larvae were examined to calculate the mortality (two replications).

Test [4] deals with resistant strain of green rice leafhopper (Nephotetix cincticeps). As to the kind of experiment: Test Example 3: rice seedling dip test, resistant green rice leafhopper. The conditions noted are these: Nephotettix cincticeps, 24 h, rice seedlings dipped 1 minute; adults of resistant strain; after one day; read-out: LC50 value (ppm). The procedure: The emulsifiable concentrates of the following present compounds and control compounds obtained according to Formulation example 2 were each diluted with water to a prescribed concentration, and rice seedlings (about 12 cm in length) were dipped for 1 minute in the resulting aqueous dilute solutions. After air-drying, the seedlings were placed in test tube, and 10 adults of a resistant strain of green rice leafhopper (Nephotetix cincticeps) were liberated in the tube. After one day, the dead and alive of the adults were examined to obtain LC50 (50% lethal concentration)(two replications).

Test [5] deals with houseflies (Musca domestica) of WHO strains. As to the kind of experiment: Test Example 6: housefly filter paper and sucrose bait test. Particulars: 0.7 ml on filter paper with sucrose bait, adult females, after 48 hours, read-out: LC50 value (ppm). The procedure: On the bottom of a polyethylene cup of 5.5 cm- in diameter was placed a piece of filter paper of the same size as the bottom, and 0.7 ml of a test solution, prepared by diluting the emulsifiable concentrates of the following present compounds and control compounds prepared according to Formulation example 2 to a prescribed concentration with water, was added dropwise to the filter paper. Thirty milligrams of sucrose were uniformly placed on the filter paper as bait. Thereafter, 10 adult female houseflies (Musca domestica) of WHO strains were liberated in the cup, which was then covered with a lid. After 48 hours, the dead and alive were examined to obtain LC50 value (50% lethal concentration) (two replications).

The subject of test [6] is carmine spider mite (Tetranychus cinnabarinus). Nature of the test: Test Example 8: carmine spider mite on potted kidney bean, degree of damage. More on the design: key: -: No damage is observed.; +: Slight damage is observed.; ++: The same damage as in the untreated plot is observed. The conditions noted are these: 500 ppm spray 10 ml/pot plus 2 ml soil treatment; after 8 days. The procedure: The female adults of carmine spider mite (Tetranychus cinnabarinus) were put at a rate of 10 adults/leaf on the leaves of potted kidney bean (at the primordial leaf stage) which had elapsed 7 days after sowing, and placed in a constant-temperature room kept at 25°C. After 6 days, the 200-fold aqueous dilute solutions (corresponding to 500 ppm), prepared from the emulsifiable concentrates of the following present compounds and control compounds prepared according to Formulation example 2, were each sprayed at a rate of 10 ml/pot on a turn table. At the same time, the soil in the pot was treated with 2 ml of each aqueous solution. After 8 days, the degree of damage of the plant by the mite was examined.
Criteria of the effect: • - : No damage is observed. • + : Slight damage is observed. • ++: The same damage as in the untreated plot is observed.

For test [7], the system named is brown rice planthoppers (Nila^parvata luqens). As to the kind of experiment: Test Example 7: spray on potted rice plants, brown rice planthopper, residual effect. The conditions noted are these: 20 h. The procedure: The emulsifiable concentrates of the following compounds and control compounds obtained according to Formulation example 2 were each diluted with water one thousand times (corresponding to 100 ppm) and each of thus prepared solutions was sprayed at the rate of 20 ml/2 pots to the rice plant seedlings planted in Wagner pots having a surface area of one ten thousandth are. After air-drying, the treated plants were covered with the iron wire cages, and about 15 adults of brown rice planthoppers (Nila^parvata luqens) were liberated thereto. Further, about 15 adults thereof were also liberated thereto 4 days after the application to examine the residual effects. Twenty hours after each liberation, the dead and alive adults were examined to calculate the mortality.

Setting [8] is: 3.5 ppm, 20 last instar larvae, after one day, read-out: Mortality.
Setting [9] is: 150 ppm solution, 2 ml in 13 g artificial feed, 4th instar larvae, six days after, read-out: Mortality (%).

Take `C#CC(C)(CCCc1ccc(F)c(Oc2ccccc2)c1)c1ccc(OCC)c(Cl)c1` (stereo not drawn) [(11)]: the mortality at 3.5 ppm in test [1] (setting [8]) was greater than 90%. For the same compound, the pest or weed control at 3.5 ppm in test [1] (3.5 ppm) is greater than 90%. Besides, the LC50 in test [2] worked out at 2.3 µg/mL (≈ 5.26 µM); in test [4], 49 µg/mL (≈ 112 µM); in test [5], 12 µg/mL (≈ 27.5 µM). The mortality at 150 ppm in test [3] (setting [9]) turned out to be 100%.
Consider `Cc1cc(Cl)ccc1N=CN(C)C` [(E), Chlordimeform, reference compound], for which, in test [6], the Degree of damage result is “- ~ +”.
Consider `C#CC(C)(CCCc1ccc(F)c(Oc2ccccc2)c1)c1ccc(CC)cc1` (stereo not drawn) [(39)], for which the mortality at 3.5 ppm in test [1] (setting [8]) was greater than 90%. In addition, the pest or weed control at 3.5 ppm in test [1] (3.5 ppm) was greater than 90%. The mortality at 150 ppm in test [3] (setting [9]) was 100%. Also, the results for the LC50 in test [4] and in test [5] were 21 µg/mL (≈ 54.3 µM) and 17 µg/mL (≈ 44 µM), respectively. Also, in test [6], the Degree of damage result was “- ~ +”.
In the case of `C#CC(C)(CCCc1ccc(F)c(Oc2ccccc2)c1)c1ccc(C(F)(F)F)cc1` (stereo not drawn) [(13)], the mortality at 3.5 ppm in test [1] (setting [8]) is greater than 90%. Besides, in test [1] (3.5 ppm), the pest or weed control at 3.5 ppm is greater than 90%. Further, the mortality at 150 ppm in test [3] (setting [9]) was 100%. Further, in test [4], the LC50 was 10 µg/mL (≈ 23.4 µM). Further, the Degree of damage entry in test [6] is given as “-”.
Turning to `C#CC(C)(CCCc1cccc(Oc2ccccc2)n1)c1ccc(OCC)cc1` (stereo not drawn) [(18), 3-(4-ethoxyphenyl)-3-methyl-6-(6-phenoxypyridin-2-yl)-l-hexyne], the mortality at 3.5 ppm in test [1] (setting [8]) is greater than 90%. Further, the pest or weed control at 3.5 ppm in test [1] (3.5 ppm) is greater than 90%. Also, the mortality at 150 ppm in test [3] (setting [9]) is 100%. The Degree of damage entry in test [6] is reported as “- ~ +”.
The compound `C#CC(C)(CCCc1cccc(Oc2ccccc2)c1)c1ccc(OCC=C)cc1` (stereo not drawn) [(7), 3-(4-allyloxyphenyl)-3-methyl-6-(3-phenoxyphenyl)-1-hexyne] registered a mortality at 3.5 ppm in test [1] of 10 to 90%. Further, the pest or weed control at 3.5 ppm in test [1] (3.5 ppm) is greater than 90%. The mortality at 100 ppm in test [7] (read-out: Mortality (%) liberated 4 days after application) is 93%; in test [7] (read-out: Mortality (%) liberated just after air-drying) it was 100%. The mortality at 150 ppm in test [3] is 100%. In test [6], the Degree of damage result is “-”.
On to `C=CC(C)(CCCc1cccc(Oc2ccccc2)c1)c1ccc(OCC)cc1` (stereo not drawn) [(1), 3-(4-ethoxyphenyl)-3-methyl-6-(3-phenoxyphenyl)-l-hexene], for which the mortality at 3.5 ppm in test [1] (setting [8]) is greater than 90%. Further, in test [1] (3.5 ppm), the pest or weed control at 3.5 ppm was greater than 90%. In addition, the mortality at 100 ppm in test [7] (100 ppm spray, 20 ml/2 pots, residual effect, twenty hours after liberation, read-out: Mortality (%) liberated 4 days after application) is 100%; in test [7] (100 ppm spray, 20 ml/2 pots, twenty hours after liberation, read-out: Mortality (%) liberated just after air-drying), 100%. Also, the mortality at 150 ppm in test [3] (setting [9]) was 100%. Moreover, in test [6], the Degree of damage entry was “- ~ +”.
As for `C#CC(C)(CCCc1ccc(F)c(Oc2ccc(Cl)cc2)c1)c1ccc(OCC)cc1` (stereo not drawn) [(34)], the mortality at 3.5 ppm in test [1] (setting [8]) is greater than 90%. In addition, the pest or weed control at 3.5 ppm in test [1] (3.5 ppm) was greater than 90%. The LC50 in test [2] was determined as 4.2 µg/mL (≈ 9.61 µM); in test [4] it was 18 µg/mL (≈ 41.2 µM). Besides, in test [3] (setting [9]), the mortality at 150 ppm amounted to 100%.
As to `C#CC(C)(CCCc1cccc(Oc2ccccc2)c1)c1ccc(OC(F)F)cc1` (stereo not drawn) [(17), 3-(4-difluoromethoxyphenyl)-3-methyl-6-(3-phenoxyphenyl)-l-hexyne], the mortality at 3.5 ppm in test [1] (setting [8]) was greater than 90%. Besides, the pest or weed control at 3.5 ppm in test [1] (3.5 ppm) is greater than 90%. Further, the 50% lethal concentration (LC50) in test [2] was 3.6 µg/mL (≈ 8.86 µM); in test [4] it was 68 µg/mL (≈ 167 µM). The mortality at 150 ppm in test [3] (setting [9]) amounted to 100%.
For `C#CC(C)(CCCc1ccc(F)c(Oc2ccccc2)c1)c1ccc(OC(F)F)cc1` (stereo not drawn) [(6)], in test [1] (setting [8]), the mortality at 3.5 ppm was greater than 90%. For the same compound, the pest or weed control at 3.5 ppm in test [1] (3.5 ppm) was greater than 90%. Moreover, the LC50 in test [2] amounted to 1.9 µg/mL (≈ 4.48 µM); in test [4], 36 µg/mL (≈ 84.8 µM); in test [5] it was 15 µg/mL (≈ 35.3 µM). Moreover, in test [3] (setting [9]), the mortality at 150 ppm was 100%.
As to `C#CC(CCCc1ccc(F)c(Oc2ccccc2)c1)c1ccc(OCC)cc1` (stereo not drawn) [(43)], in test [1] (setting [8]), the mortality at 3.5 ppm was greater than 90%. Moreover, in test [1] (3.5 ppm), the pest or weed control at 3.5 ppm is greater than 90%. Further, the mortality at 150 ppm in test [3] (setting [9]) came to 100%. Besides, the LC50 in test [4] is 74 µg/mL (≈ 190 µM). Further, the Degree of damage result in test [6] is “- ~ +”.
`C#CC(C)(CCCc1ccc(F)c(Oc2ccccc2)c1)c1ccc(F)cc1` (stereo not drawn) [(9)]: the mortality at 3.5 ppm in test [1] (setting [8]) is greater than 90%. Also, the pest or weed control at 3.5 ppm in test [1] (3.5 ppm) is greater than 90%. Further, the LC50 in test [2] was 4.2 µg/mL (≈ 11.2 µM); in test [4] it was 49 µg/mL (≈ 130 µM). In addition, the mortality at 150 ppm in test [3] (setting [9]) turned out to be 100%.
